The source of these data is patent US10544140B2, “Pharmaceutical composition containing, as active ingredient, 7-azaindolin-2-one derivative or pharmaceutically acceptable salt thereof” (LG CHEM, LTD., priority 2015, dated 2020).

A word on the IC50: it is the concentration at which inhibition is half-maximal. Low values mean inhibition by little substance, high ones a need for much substance.

Data set [1] has as its system MCF-7 (human breast cancer cell line). Nature of the data set: Cytotoxicity test by MTT assay, MCF-7. Type of data set: cell-based. Conditions: for cytotoxicity at 30 µM / IC50: Homo sapiens, MCF7; for cytotoxicity at 30 µM: MCF-7, 30 μM, 48 h, read-out: Cell viability (% inhibition); for IC50: MCF-7, 48 h; for cytotoxicity compared with the reference drug sunitinib: MCF-7. On the technique in general: Tetrazolium assays rely on reduction of a dye to a coloured formazan, in cell work by metabolically active cells.

The next data set relates to A549 (lung cancer). Description: Cytotoxicity test by MTT assay, A549. Type of data set: cell-based, human. The settings on record: for IC50: Homo sapiens, A549, 48 h. The protocol:
(§1) A cytotoxicity test was measured by MTT assay. Each cell line was cultured in a 96-well plate at a density of 1×10^4 cells/well. After 24 hours, the culture medium containing 1% FBS (fetal bovine serum) was treated and reacted with compounds or solutions of compounds for 48 hours. MTT (3-(4,5-dimethylthiazol-2-yl)-2,5-diphenyltetrazolium bromide) solution (5 mg/mL) was added to each well and reacted for 4 hours in an incubator. […] After reacting in an incubator for 30 minutes, the formation of formazan was quantified using a microplate reader at an absorbance of 540 nm. […] The human cancer cell lines used herein are MCF-7 (breast cancer), MDA-MB-231 (breast cancer), HT-29 (colon cancer), DU145 (prostate cancer), U937 (myeloid leukemia), A549 (lung cancer), PANC-1 (pancreatic cancer) and MIA PaCa-2 (pancreatic cancer).

Another data set concerns U937 (myeloid leukemia). Nature of the data set: Cytotoxicity test by MTT assay, U937. Type of data set: cell-based, human. The settings on record: for IC50: Homo sapiens, U-937, U937, 48 h. The protocol: as §1
The subject of a further data set is DU145 (prostate cancer). Description: Cytotoxicity test by MTT assay, DU145. The format is cell-based, human. Conditions: DU-145; for IC50: Homo sapiens, DU145, 48 h. The protocol: as §1
In a further data set the test system is HT-29 (colon cancer). Nature of the data set: Cytotoxicity test by MTT assay, HT-29. The format is cell-based, human. The settings on record: for IC50: Homo sapiens, HT-29, 48 h. As for the experimental part: as §1
Data set [2] in a line: Cytotoxicity test by MTT assay, CHO-K1 normal cell line. The format is cell-based. The settings on record: Chinese hamster, CHO-K1 cells (normal cell line). As for the experimental part: (§2) A cytotoxicity test was measured by MTT assay. Each cell line was cultured in a 96-well plate at a density of 1×10^4 cells/well. After 24 hours, the culture medium containing 1% FBS (fetal bovine serum) was treated and reacted with compounds or solutions of compounds for 48 hours. MTT (3-(4,5-dimethylthiazol-2-yl)-2,5-diphenyltetrazolium bromide) solution (5 mg/mL) was added to each well and reacted for 4 hours in an incubator. […] After reacting in an incubator for 30 minutes, the formation of formazan was quantified using a microplate reader at an absorbance of 540 nm.

Data set [3] has as its system MIA PaCa-2 (pancreatic cancer). Description: Cytotoxicity test by MTT assay, MIA PaCa-2. Type of data set: cell-based, human. Conditions: for IC50: Homo sapiens, MIA PaCa-2, 48 h; for cytotoxicity compared with the reference drug sunitinib: MIA PaCa-2. The protocol: as §1
Data set [4] can be described thus: Cytotoxicity test by MTT assay, HEK293 normal cell line. The format is cell-based. The settings on record: human, HEK293 cells (normal cell line). As for the experimental part: as §2
The test system of data set [5] is PANC-1 (human pancreatic cancer cell line). Description: Cytotoxicity test by MTT assay, PANC-1. Conditions: for IC50 / cytotoxicity at 30 µM: Homo sapiens; for IC50: PANC-1, 48 h; for cytotoxicity at 30 µM: PANC-1, 30 μM, 48 h, read-out: Cell viability (% inhibition); for cytotoxicity compared with the reference drug sunitinib: PANC-1. The format is cell-based.
Data set [6] concerns MDA-MB-231 (breast cancer). Description: Cytotoxicity test by MTT assay, MDA-MB-231. The settings on record: for IC50: Homo sapiens, MBA-MB-231, 48 h. Type of data set: cell-based, human. As for the experimental part: as §1

Molecules are shown by their SMILES.

In the case of `CCN(CC)CCNC(=O)c1c(C)[nH]c(/C=C2\C(=O)Nc3nc(C)c(O)c(C)c32)c1C` [Compound I-39, (Z)—N-(2-(Diethylamino)ethyl)-5-((5-hydroxy-4,6-dimethyl-2-oxo-1H-pyrrolo[2,3-b]pyridin-3(2H)-ylidene)methyl)-2,4-dimethyl-1H-pyrrole-3-carboxamide], the cytotoxicity at 30 µM in [1] is 62.7%; in data set [5], 69.6%. The IC50 came out at 6.09 µM in data set [1]; 19.9 µM in the data set on A549 (lung cancer); 8.01 µM in the data set on U937 (myeloid leukemia); 2880 nM with DU145 (prostate cancer); 20.9 µM with HT-29 (colon cancer); 7.94 µM in [3]. In addition, the figures for the IC50 in [5] and in data set [6] were 15.1 µM and 5.31 µM, respectively. For the same compound, the “cytotoxicity compared with the reference drug sunitinib” value (in [1]; with DU145 (prostate cancer); in data set [3]; in data set [5]; in data set [6]) was “greater than or equal to that of the reference drug sunitinib” throughout. Further, the IC50 at 48 h in data set [2] was over 90 µM; in data set [4], 40.7 µM.

Regarding `Cc1nc2c(c(C)c1O)/C(=C/c1[nH]c(C)c(C(=O)NC3CCCCC3)c1C)C(=O)N2` [Compound I-41, (Z)—N-Cyclohexyl-5-((5-hydroxy-4,6-dimethyl-2-oxo-1H-pyrrolo[2,3-b]pyridin-3(2H)-ylidene)methyl)-2,4-dimethyl-1H-pyrrole-3-carboxamide], the values for the cytotoxicity at 30 µM in [1] and in data set [5] were 78.1% and 78.3%, respectively. The IC50 in data set [1] was 6.9 µM; with A549 (lung cancer) it was 6.08 µM; in the data set with U937 (myeloid leukemia), 3.21 µM; in the data set on DU145 (prostate cancer) it was under 1000 nM; in the data set with HT-29 (colon cancer), 4.47 µM; in [3], 5.01 µM. Besides, the IC50 in data set [5] is 5.88 µM; in [6], 3.52 µM. In addition, the “cytotoxicity compared with the reference drug sunitinib” value (in data set [1]; with A549 (lung cancer) (A-549); in the data set with U937 (myeloid leukemia) (U937); with DU145 (prostate cancer); in the data set on HT-29 (colon cancer) (HT-29); in data set [3]) was “greater than or equal to that of the reference drug sunitinib” in each case. The “cytotoxicity compared with the reference drug sunitinib” value in data set [5] and in data set [6] was “greater than or equal to that of the reference drug sunitinib” in each case. Moreover, the figures for the IC50 at 48 h in data set [2] and in data set [4] were 43.4 µM and 37.1 µM, respectively.
